Literature values in US12414943B2 (ACASTI PHARMA U.S., INC., priority 2022, dated 2025).

Key:
[1] = nimodipine-treated SAH patients
[2] = man, oral

In the case of COCCOC(=O)C1=C(C)NC(C)=C(C(=O)OC(C)C)C1c1cccc([N+](=O)[O-])c1 (centres unmarked) [Nimodipine, isopropyl2-methoxyethyl 1,4-dihydro-2,6-dimethyl-4-(m-nitrophenyl)-3,5-pyridinedicarboxylate], the “concentration in the cerebrospinal fluid” value [1] is listed as no more than 12.5 ng/mL and the “half-life equivalent to earlier elimination rates” value [2] is listed as 1 to 2 h.
